In ChEMBL document CHEMBL3861942 (Medchemcomm, 2016):
The source made the active and inactive calls. The rule behind the calls is not given here.

Key:
[1] = Cell cycle arrest in human HeLa cells assessed as accumulation at G1 phase at 100 uM by propidium iodide staining-based flow cytometric analysis (reference value: 42 +/- 1.8%); format: functional
[2] = Cell cycle arrest in human HeLa cells assessed as accumulation at S phase at 10 uM by propidium iodide staining-based flow cytometric analysis (reference value: 6.7 +/- 0.3%); format: functional
[3] = Cell cycle arrest in human A549 cells assessed as accumulation at G2/M phase at 100 uM by propidium iodide staining-based flow cytometric analysis (reference value: 23.5 +/- 1%); format: functional
[4] = Cell cycle arrest in human HeLa cells assessed as accumulation at G2/M phase at 100 uM by propidium iodide staining-based flow cytometric analysis (reference value: 47.1 +/- 1.2%); format: functional
[5] = Cell cycle arrest in human HeLa cells assessed as accumulation at sub G0 phase at 100 uM by propidium iodide staining-based flow cytometric analysis (reference value: 1.05 +/- 0.2%); format: functional
HeLa [6] = assay: Induction of apoptosis in human HeLa cells assessed as appearance of concentrated and asymmetrically localized nucleus at 10 to 100 uM after 24 hrs by acridine orange/ethidium bromide staining-based fluorescence microscopy; format: functional, cell-based
[7] = Cell cycle arrest in human HeLa cells assessed as accumulation at G1 phase at 10 uM by propidium iodide staining-based flow cytometric analysis (reference value: 42 +/- 1.8%); format: functional
HeLa [8] = assay: (§1) Cytotoxicity against human HeLa cells assessed as decrease in cell viability after 24 hrs by MTT assay; format: functional, cell-based
[9] = as §1; format: functional, cell-based
[10] = Cell cycle arrest in human A549 cells assessed as accumulation at sub G0 phase at 100 uM by propidium iodide staining-based flow cytometric analysis (reference value: 0.866 +/- 0.03%); format: functional
[11] = Cell cycle arrest in human A549 cells assessed as accumulation at S phase at 100 uM by propidium iodide staining-based flow cytometric analysis (reference value: 8.9 +/- 0.6%); format: functional
[12] = Cell cycle arrest in human A549 cells assessed as accumulation at G1 phase at 10 uM by propidium iodide staining-based flow cytometric analysis (reference value: 66.2 +/- 1.5%); format: functional
A549 [13] = assay: Induction of apoptosis in human A549 cells assessed as appearance of crescent or granular shape nucleus on one side of the cell at 10 to 100 uM after 24 hrs by acridine orange/ethidium bromide staining-based fluorescence microscopy; format: functional
[14] = Cell cycle arrest in human A549 cells assessed as accumulation at G1 phase at 100 uM by propidium iodide staining-based flow cytometric analysis (reference value: 66.2 +/- 1.5%); format: functional
[15] = (§2) Cytotoxicity against human A549 cells assessed as decrease in cell viability after 24 hrs by MTT assay; format: functional, cell-based; details: A549, 24 h
A549 [16] = assay: as §2; format: functional, cell-based
[17] = Cell cycle arrest in human A549 cells assessed as accumulation at sub G0 phase at 10 uM by propidium iodide staining-based flow cytometric analysis (reference value: 0.866 +/- 0.03%); format: functional
A549 [18] = assay: Induction of apoptosis in human A549 cells assessed as appearance of concentrated and asymmetrically localized nucleus at 10 to 100 uM after 24 hrs by acridine orange/ethidium bromide staining-based fluorescence microscopy; format: functional, cell-based
[19] = Cell cycle arrest in human HeLa cells assessed as accumulation at S phase at 100 uM by propidium iodide staining-based flow cytometric analysis (reference value: 6.7 +/- 0.3%); format: functional
[20] = Cell cycle arrest in human A549 cells assessed as accumulation at S phase at 10 uM by propidium iodide staining-based flow cytometric analysis (reference value: 8.9 +/- 0.6%); format: functional
[21] = Cell cycle arrest in human HeLa cells assessed as accumulation at G2/M phase at 10 uM by propidium iodide staining-based flow cytometric analysis (reference value: 47.1 +/- 1.2%); format: functional
[22] = Cell cycle arrest in human HeLa cells assessed as accumulation at sub G0 phase at 10 uM by propidium iodide staining-based flow cytometric analysis (reference value: 1.05 +/- 0.2%); format: functional
[23] = Cell cycle arrest in human A549 cells assessed as accumulation at G2/M phase at 10 uM by propidium iodide staining-based flow cytometric analysis (reference value: 23.5 +/- 1%); format: functional

| Structure (SMILES) | Activity [1] | Activity [2] | Activity [3] | Activity [4] | Activity [5] | Activity (HeLa [6]) | Activity [7] | Activity (HeLa [8]) | IC50 [9] | Activity [10] | Activity [11] | Activity [12] | Activity (A549 [13]) | Activity [14] | IC50 [15] | Activity (A549 [16]) | Activity [17] | Activity (A549 [18]) | Activity [19] | Activity [20] | other results |
| --- | --- | --- | --- | --- | --- | --- | --- | --- | --- | --- | --- | --- | --- | --- | --- | --- | --- | --- | --- | --- | --- |
| CC[C@H](/C=C/[C@@H](C)[C@H]1CC[C@H]2[C@@H]3CC=C4C[C@@H](O)CC[C@]4(C)[C@H]3CC[C@]12C)C(C)C [STIGMASTEROL] | 38% | 6.4% | 24.1% | 48.9% | 1.41% | Active | 39% | Dose-dependent effect | 12.2 µM | 0.9% | 9.3% | 62.5% | Active | 64.9% | 10.4 µM | Dose-dependent effect | 0.85% | Active | 7.1% | 9.6% | Activity [21]: 48.7%; Activity [22]: 0.94%; Activity [23]: 26.5% |
| O=C(O)/C=C/c1ccccc1 [CINNAMIC ACID] | 73.3% | 28.6% | 24.8% | 0.5% | 14.4% | Active | 55.6% | Dose-dependent effect | 24.8 µM | 0.48% | 8.1% | 62.7% | Active | 65.6% | 50.2 µM | Dose-dependent effect | 0.54% | Active | 14% | 8.3% | Activity [21]: 7.1%; Activity [22]: 5.8%; Activity [23]: 26.9% |
| CC[C@]1(O)C[C@H]2CN(CCc3c([nH]c4ccccc34)[C@@](C(=O)OC)(c3cc4c(cc3OC)N(C=O)[C@H]3[C@@](O)(C(=O)OC)[C@H](OC(C)=O)[C@]5(CC)C=CCN6CC[C@]43[C@@H]65)C2)C1 [VINCRISTINE] | – | – | – | – | – | – | – | – | 4.1 µM | – | – | – | – | – | 0.8 µM | – | – | – | – | – | – |
